Earlier results, collected in US20140186466A1, “NEUTRACEUTICAL FORMULATION FOR TREATMENT OF DIABETES” (Creative Medical Health Inc., priority 2012, published 2014).
Read-outs that look alike come from different tables or passages of the source.

Columns and labels:
patients with diabetes [1] = conditions: 500 mg or 1000 mg three times a day, 52 weeks
tissue uptake of glucose = conditions: healthy patients and patients with type 2 diabetes
[2] = test system: skin microvasculature of diabetic rats; conditions: streptozotocin-diabetic male Wistar rats; 10 g/l in drinking water
[3] = test system: streptozotocin diabetic rats; conditions: 10 g/l in drinking water, eight weeks
mesenteric vascular bed = conditions: STZ diabetic rats; 10 g/L in drinking water, 8 weeks; intact and denuded endothelium
[4] = test system: patients with hypertension; conditions: 60 patients with hypertension; 20 mmol/d, 8 weeks
[5] = in vivo
dipeptidyl peptidase-IV = dipeptidyl peptidase-IV (Homo sapiens, UniProt P27487)
[6] = test system: ischemia-reperfusion insult in rats; conditions: 10 mg chromium/kg diet for six weeks
HIV-positive subjects = conditions: 1000 µg/day, eight weeks
[7] = test system: Streptozotocin-induced diabetic animals; conditions: 4 weeks
[8] = test system: inflammatory pathways involved in diabetic nephropathy; conditions: rat model; 22 micrograms in water for 12 weeks (8 mcg/day)
diabetic rats [9] = test system: diabetic rats
diabetic rats [10] = conditions: 100 mg/kg, 60 days
type 1 diabetic patients = conditions: 51 type 1 diabetic patients; 600 mg once daily, 5 weeks
[11] = test system: patients with type 2 diabetes; conditions: 57 patients, 300 mg daily or placebo, eight weeks
peripheral neuropathy = conditions: intravenously 600 mg/day over 3 weeks
diabetic rat brains = conditions: 0.6 mg/mL in drinking water, 4 weeks
patients with diabetes [12] = conditions: 2000 IU/daily for 18 months
[13] = diabetic rats, 1 mg/kg body weight

Sequence of dipeptidyl peptidase-IV (P27487 whole entry, species assumed, the tested form may be a part): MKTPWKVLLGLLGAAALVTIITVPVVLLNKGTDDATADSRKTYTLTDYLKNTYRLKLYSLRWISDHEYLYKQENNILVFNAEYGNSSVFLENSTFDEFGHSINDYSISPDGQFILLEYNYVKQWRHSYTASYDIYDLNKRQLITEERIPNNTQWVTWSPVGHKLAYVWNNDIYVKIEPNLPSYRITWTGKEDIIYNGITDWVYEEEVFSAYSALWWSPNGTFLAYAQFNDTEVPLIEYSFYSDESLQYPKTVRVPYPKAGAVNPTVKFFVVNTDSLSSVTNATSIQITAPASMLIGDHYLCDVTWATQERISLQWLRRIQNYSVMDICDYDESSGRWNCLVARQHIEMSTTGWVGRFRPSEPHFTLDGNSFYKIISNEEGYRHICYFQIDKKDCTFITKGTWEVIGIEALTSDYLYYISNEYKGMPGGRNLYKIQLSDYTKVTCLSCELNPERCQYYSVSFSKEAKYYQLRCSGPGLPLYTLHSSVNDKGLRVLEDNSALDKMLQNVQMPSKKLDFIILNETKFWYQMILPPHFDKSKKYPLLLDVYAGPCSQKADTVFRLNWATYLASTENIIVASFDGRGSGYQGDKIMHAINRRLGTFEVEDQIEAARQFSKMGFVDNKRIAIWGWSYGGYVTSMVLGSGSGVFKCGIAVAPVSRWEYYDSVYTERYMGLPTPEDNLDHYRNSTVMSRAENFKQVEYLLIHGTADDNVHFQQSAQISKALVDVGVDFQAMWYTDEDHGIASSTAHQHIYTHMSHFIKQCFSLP

CC(=O)O[C@H](CC(=O)[O-])C[N+](C)(C)C [acetyl-L-carnitine]
nerve fiber regeneration (patients with diabetes [1]): improvements
neuropathic pain (patients with diabetes [1]): symptomatic relief
tissue uptake of glucose (tissue uptake of glucose): dose-dependent effects

O=S(=O)([O-])[O-].[Mg+2] [magnesium sulfate]
endothelial relaxation stimulated with acetylcholine (Ach) or sodium nitroprusside (SNP) [2]: enhanced
plasma glucose ([3]; STZ 40 mg/kg i.v. diabetic rats): to normal levels
high density lipoprotein (HDL) ([3]; STZ diabetic rats): to normal levels
low density lipoprotein (LDL) ([3]; STZ diabetic rats): to normal levels
mesenteric fat/body weight ratio ([3]; STZ diabetic rats): reductions
systolic blood pressure ([3]; STZ diabetic rats): to normal levels
total cholesterol ([3]; STZ diabetic rats): to normal levels
triglyceride ([3]; STZ diabetic rats): to normal levels
very low density lipoprotein (VLDL) ([3]; STZ diabetic rats): to normal levels
mean perfusion pressure of mesenteric vascular bed (mesenteric vascular bed): decrease

[O]=[Mg] [magnesium oxide]
ambulatory BP reduction, first value of the pair [4]: 2.5 mm Hg
ambulatory BP reduction, second value of the pair [4]: 1.4 mm Hg
home BP decrease, first value of the pair [4]: 2.0 mm Hg
home BP decrease, second value of the pair [4]: 1.4 mm Hg
office BP fall, first value of the pair [4]: 3.7 mm Hg
office BP fall, second value of the pair [4]: 1.7 mm Hg

CN(C)C(=N)N=C(N)N [metformin, Metformin]
glucose utilization [5]: increased
leptin concentrations [5]: reduction
dipeptidyl peptidase-IV activity (dipeptidyl peptidase-IV): inhibition

chromium picolinate
myocardial contractility and relaxation following ischemia-reperfusion insult [6]: recovery
mean rate of glucose disposal after treatment (HIV-positive subjects; eight HIV-positive subjects on antiretroviral therapy, before 4.41, range 3.19-12.78, p=0.03): 6.51 mg/kg LBM/min
increase of mean rate of glucose disposal (HIV-positive subjects; eight HIV-positive subjects): 25%
plasma glucose levels ([7]; 1 mg/kg body weight daily): lowered
weight loss in diabetic animals ([7]; 1 mg/kg body weight daily): increased
glycogen content in the livers ([7]; 1 mg/kg body weight daily, to near control levels): normalized
action of insulin [7, 13]: potentiate
plasma cholesterol levels [7, 13]: lower
plasma triglyceride levels [7, 13]: lower
activity of inflammatory pathways involved in diabetic nephropathy [8]: reducing the activity
elevated hepatic and cerebral free fatty acids and malondialdehyde (diabetic rats [9]; high dose 13.20 μg Cr kg(−1) day(−1), relative to control (non-diabetic) levels): nearly normalized
elevated hepatic and cerebral free fatty acids and malondialdehyde (diabetic rats [9]; low (human equivalent) dose 2.90 μg Cr kg(−1) day(−1)): significantly reduced

O=S(=O)([O-])[O-].[O]=[V+2] [vanadyl sulfate]
blood glucose levels (diabetic rats [10]): lower
serum antioxidant enzyme levels in muscle tissue (diabetic rats [10]): decrease

O=C(O)CCCCC1CCSS1 (stereo not drawn) [alpha lipoic acid]
measures of platelet reactivity (type 1 diabetic patients): reduced
fasting blood glucose levels [11]: reduced
neuropathic pain (peripheral neuropathy): clinically relevant reduction

[Na+].[Na+].[Na+].[O]=[V]([O-])([O-])[O-] [sodium orthovanadate]
ischemic injury in diabetic rat brains (diabetic rat brains): significantly reduced
neurobehavioral function (diabetic rat brains): improved

C=C1CC[C@H](O)C/C1=C/C=C1\CCC[C@]2(C)[C@@H]([C@H](C)CCCC(C)C)CC[C@@H]12 [Vitamin D3]
serum lipid profiles (patients with diabetes [12]): beneficial effects
